What all share (assay type): biochemical
One assay deals with PIM-1 (Homo sapiens, UniProt P11309). Put plainly: Enzyme PIM-1 Assay ([33P]ATP incorporation into PIM2tide, filter plate). Conditions: averaged IC50; 35 μM ATP, 7.5 μM PIM2tide, 0.25 nM PIM-1, 60 min at 22° C. The procedure, abridged:
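Radiometric assay: 0.25 nM PIM-1 phosphorylates 7.5 μM PIM2tide with 35 μM [γ-33P]ATP in 20 mM MOPS pH 7.4, 10 mM MgCl2, 1 mM DTT, 0.005% Tween-20, 60 min at 22 °C. Product captured on P81 filters, scintillation counted; 10-point 3-fold curve from 10 μM top, 2% DMSO, IC50 by 4-parameter logistic fit of POC.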

The target in assay [1] is T1, GST-tagged recombinant full-length human Pim-2 (Homo sapiens, UniProt Q9P1W9).
T1 construct: GST-tagged recombinant full-length human Pim-2; GST
T1 sequence (Q9P1W9 whole entry): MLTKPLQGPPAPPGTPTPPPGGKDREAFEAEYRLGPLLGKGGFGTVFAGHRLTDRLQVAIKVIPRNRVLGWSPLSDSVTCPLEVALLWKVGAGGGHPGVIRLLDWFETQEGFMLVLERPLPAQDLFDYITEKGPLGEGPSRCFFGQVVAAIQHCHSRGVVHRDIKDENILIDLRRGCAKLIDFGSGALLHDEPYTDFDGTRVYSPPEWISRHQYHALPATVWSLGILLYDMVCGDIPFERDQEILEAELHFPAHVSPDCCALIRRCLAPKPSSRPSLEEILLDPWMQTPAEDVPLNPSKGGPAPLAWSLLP
Put plainly: PIM-2 Assay (as Example A). To be noted: averaged IC50; 4 μM ATP, 1.0 μM PIM2tide, 1.5 nM Pim-2. The procedure, abridged: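 Radiometric filter-binding assay: GST-tagged full-length human Pim-2 (1.5 nM) phosphorylates 1.0 μM PIM2tide with 4 μM [γ-33P]ATP for 60 min at 22 °C in pH 7.4 MOPS buffer, 2% DMSO. 10-point 3-fold dilutions from 10 μM top dose; IC50 from 4-parameter fit of percent of control.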

A further assay has as its target recombinant rat PIM-3 (Rattus norvegicus, UniProt O70444). Put plainly: PIM-3 Assay (as Example A). To be noted: averaged IC50; 30 μM ATP, 3.75 μM PIM2tide, 0.5 nM PIM-3. The procedure, abridged:
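Recombinant rat PIM-3 (0.5 nM) with 3.75 μM PIM2tide and 30 μM [γ-33P]ATP in MOPS pH 7.4 buffer, 60 min at 22 °C; labelled peptide captured on phosphocellulose filters and counted by scintillation. 10-point curve (top dose 10 μM, 2% DMSO); IC50 from 4-parameter fit of percent of control.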

pIC50: −log10 of the molar value. Counter-ions that a name gives are not always drawn.

For orientation: pIC50 means the negative decadic logarithm of the IC50, by convention in mol/L.

Sequence of PIM-1 (P11309 whole entry, species assumed): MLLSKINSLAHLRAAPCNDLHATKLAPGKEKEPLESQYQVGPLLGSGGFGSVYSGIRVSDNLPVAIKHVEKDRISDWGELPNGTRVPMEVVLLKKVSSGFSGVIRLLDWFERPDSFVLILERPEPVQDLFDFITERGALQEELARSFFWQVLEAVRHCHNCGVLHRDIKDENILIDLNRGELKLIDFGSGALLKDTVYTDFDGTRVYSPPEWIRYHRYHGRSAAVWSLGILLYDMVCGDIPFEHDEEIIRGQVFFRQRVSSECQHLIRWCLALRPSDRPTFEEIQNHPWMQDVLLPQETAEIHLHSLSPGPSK

As to `COCCOc1c(F)ccc2ccc(-c3nnc4ccc([C@@H](N5CC[C@H](N)C5)C(F)(F)F)cn34)nc12` [Example 108, (S)-1-((R)-2,2,2-trifluoro-1-(3-(7-fluoro-8-(2-methoxyethoxy)quinolin-2-yl)-[1,2,4]triazolo[4,3-a]pyridin-6-yl)ethyl)pyrrolidin-3-amine hydrochloride], the pIC50 against PIM-1 is 9.31; in assay [1] it was less than 7.00; on recombinant rat PIM-3, 8.33.

In the case of `CC(C)Oc1c(F)ccc2ccc(-c3nnc4ccc([C@@H](N5CC[C@H](N)C5)C(F)(F)F)cn34)nc12` [Example 109, (S)-1-((R)-2,2,2-trifluoro-1-(3-(7-fluoro-8-isopropoxyquinolin-2-yl)-[1,2,4]triazolo[4,3-a]pyridin-6-yl)ethyl)pyrrolidin-3-amine hydrochloride], the figures for the pIC50 (against PIM-1; in assay [1]; at recombinant rat PIM-3) were 9.55, less than 7.00 and 8.26, respectively.

In the case of `COCC(C)(COC)c1cccc2ccc(-c3nnc4ccc([C@@H](N5CC[C@H](N)C5)C(F)(F)F)cn34)nc12` [Example 110, (S)-1-((R)-1-(3-(8-(1,3-dimethoxy-2-methylpropan-2-yl)quinolin-2-yl)-[1,2,4]triazolo[4,3-a]pyridin-6-yl)-2,2,2-trifluoroethyl)pyrrolidin-3-amine dihydrochloride], the pIC50 is 9.72 on PIM-1, 7.02 in assay [1] and 8.74 on recombinant rat PIM-3.

As for `COCCc1cccc2ccc(-c3nnc4ccc([C@@H](N5CC[C@H](N)C5)C(F)(F)F)cn34)nc12` [Example 111, (S)-1-((R)-2,2,2-trifluoro-1-(3-(8-(2-methoxyethyl)quinolin-2-yl)-[1,2,4]triazolo[4,3-a]pyridin-6-yl)ethyl)pyrrolidin-3-amine dihydrochloride], the results for the pIC50 (at PIM-1; in assay [1]; at recombinant rat PIM-3) were 10.15, 7.28 and 9.00, respectively.

Regarding `COCC1(c2cccc3ccc(-c4nnc5ccc([C@@H](N6CC[C@H](N)C6)C(F)(F)F)cn45)nc23)CC1` [Example 112, (S)-1-((R)-2,2,2-trifluoro-1-(3-(8-(1-(methoxymethyl)cyclopropyl)quinolin-2-yl)-[1,2,4]triazolo[4,3-a]pyridin-6-yl)ethyl)pyrrolidin-3-amine dihydrochloride], the figures for the pIC50 (at PIM-1; in assay [1]; at recombinant rat PIM-3) were 9.92, 7.68 and 8.85, respectively.

Regarding `COc1cc2nc(-c3nnc4ccc([C@@H](N5CC[C@H](N)C5)C(F)(F)F)cn34)ccc2cc1F` [Example 113, (S)-1-((R)-2,2,2-trifluoro-1-(3-(6-fluoro-7-methoxyquinolin-2-yl)-[1,2,4]triazolo[4,3-a]pyridin-6-yl)ethyl)pyrrolidin-3-amine hydrochloride], the pIC50 at PIM-1 was 10.30; in assay [1] it was less than 7.00; on recombinant rat PIM-3 it was 8.64.

Regarding `N[C@H]1CCN([C@H](c2ccc3nnc(-c4ccc5cccc(C6(CO)CC6)c5n4)n3c2)C(F)(F)F)C1` [Example 114, (1-(2-(6-((R)-1-((S)-3-aminopyrrolidin-1-yl)-2,2,2-trifluoroethyl)-[1,2,4]triazolo[4,3-a]pyridin-3-yl)quinolin-8-yl)cyclopropyl)methanol dihydrochloride], the pIC50 on PIM-1 was 10.22; in assay [1], 8.25; on recombinant rat PIM-3, 9.52.

Turning to `Cc1c(OC(C)C)ccc2ccc(-c3nnc4ccc([C@@H](N5CC[C@H](N)C5)C(F)(F)F)cn34)nc12` [Example 116, (S)-1-((R)-2,2,2-trifluoro-1-(3-(7-isopropoxy-8-methylquinolin-2-yl)-[1,2,4]triazolo[4,3-a]pyridin-6-yl)ethyl)pyrrolidin-3-amine hydrochloride], the pIC50 is 9.62 at PIM-1, 7.12 in assay [1] and 8.74 at recombinant rat PIM-3.

With `COCCOc1ccc2ccc(-c3nnc4ccc([C@@H](N5CC[C@H](N)C5)C(F)(F)F)cn34)nc2c1C` [Example 117, (S)-1-((R)-2,2,2-trifluoro-1-(3-(7-(2-methoxyethoxy)-8-methylquinolin-2-yl)-[1,2,4]triazolo[4,3-a]pyridin-6-yl)ethyl)pyrrolidin-3-amine hydrochloride], the pIC50 was 9.68 against PIM-1, 6.68 in assay [1] and 9.40 at recombinant rat PIM-3.

For `COCC(C)Oc1cccc2ccc(-c3nnc4ccc([C@@H](N5CC[C@H](N)C5)C(F)(F)F)cn34)nc12` (stereo partly drawn) [Example 118, (3S)-1-((1R)-2,2,2-trifluoro-1-(3-(8-(1-methoxypropan-2-yloxy)quinolin-2-yl)-[1,2,4]triazolo[4,3-a]pyridin-6-yl)ethyl)pyrrolidin-3-amine hydrochloride], the pIC50 against PIM-1 is 9.96; in assay [1] it was 7.14; on recombinant rat PIM-3, 9.10.

As for `CC(C)Oc1cc2nc(-c3nnc4ccc([C@@H](N5CC[C@H](N)C5)C(F)(F)F)cn34)ccc2cc1F` [Example 119, (S)-1-((R)-2,2,2-trifluoro-1-(3-(6-fluoro-7-isopropoxyquinolin-2-yl)-[1,2,4]triazolo[4,3-a]pyridin-6-yl)ethyl)pyrrolidin-3-amine hydrochloride], the pIC50 is 9.68 at PIM-1, 7.64 in assay [1] and 9.05 at recombinant rat PIM-3.

In the case of `COCCOc1cc2nc(-c3nnc4ccc([C@@H](N5CC[C@H](N)C5)C(F)(F)F)cn34)ccc2cc1F` [Example 120, (S)-1-((R)-2,2,2-trifluoro-1-(3-(6-fluoro-7-(2-methoxyethoxy)quinolin-2-yl)-[1,2,4]triazolo[4,3-a]pyridin-6-yl)ethyl)pyrrolidin-3-amine hydrochloride], the negative logarithm of the IC50 (pIC50) on PIM-1 is 9.33; in assay [1], less than 7.00; on recombinant rat PIM-3 it was 8.52.

Regarding `CC(C)(CO)c1cc(F)cc2ccc(-c3nnc4ccc([C@@H](N5CC[C@H](N)C5)C(F)(F)F)cn34)nc12` [Example 121, 2-(2-(6-((R)-1-((S)-3-aminopyrrolidin-1-yl)-2,2,2-trifluoroethyl)-[1,2,4]triazolo[4,3-a]pyridin-3-yl)-6-fluoroquinolin-8-yl)-2-methylpropan-1-ol dihydrochloride], the pIC50 on PIM-1 is 9.89; in assay [1], 8.06; on recombinant rat PIM-3, 9.70.

As to `CC(=O)OCCOc1cc2nc(-c3nnc4ccc([C@@H](N5CC[C@H](N)C5)C(F)(F)F)cn34)ccc2cc1F` [Example 122, 2-(2-(6-((R)-1-((S)-3-aminopyrrolidin-1-yl)-2,2,2-trifluoroethyl)-[1,2,4]triazolo[4,3-a]pyridin-3-yl)-6-fluoroquinolin-7-yloxy)ethyl acetate hydrochloride], the pIC50 against PIM-1 was 9.70; in assay [1] it was less than 7.00; on recombinant rat PIM-3, 9.15.

On to `N[C@H]1CCN([C@H](c2ccc3nnc(-c4ccc5cc(F)c(OCCO)cc5n4)n3c2)C(F)(F)F)C1` [Example 123, 2-(2-(6-((R)-1-((S)-3-aminopyrrolidin-1-yl)-2,2,2-trifluoroethyl)-[1,2,4]triazolo[4,3-a]pyridin-3-yl)-6-fluoroquinolin-7-yloxy)ethanol hydrochloride], for which the pIC50 against PIM-1 is 9.70; in assay [1], 7.14; on recombinant rat PIM-3 it was 9.40.

For `COc1ccc2ccc(-c3nnc4ccc([C@@H](N5CC[C@H](N)C5)C(F)(F)F)cn34)nc2c1C` [Example 124, (S)-1-((R)-2,2,2-trifluoro-1-(3-(7-methoxy-8-methylquinolin-2-yl)-[1,2,4]triazolo[4,3-a]pyridin-6-yl)ethyl)pyrrolidin-3-amine hydrochloride], the values for the negative logarithm of the IC50 (pIC50) (at PIM-1; in assay [1]; at recombinant rat PIM-3) were 9.68, less than 7.00 and 9.15, respectively.

Regarding `N[C@H]1CCN([C@H](c2ccc3nnc(-c4ccc5cc(F)cc(C6(CO)CC6)c5n4)n3c2)C(F)(F)F)C1` [Example 125, (1-(2-(6-((R)-1-((S)-3-aminopyrrolidin-1-yl)-2,2,2-trifluoroethyl)-[1,2,4]triazolo[4,3-a]pyridin-3-yl)-6-fluoroquinolin-8-yl)cyclopropyl)methanol dihydrochloride], the negative-log IC50 (pIC50) against PIM-1 is 9.96; in assay [1], 8.21; at recombinant rat PIM-3, 9.40.

In the case of `OCC1(c2cc(F)cc3ccc(-c4nnc5ccc([C@@H](N6CC[C@H](O)C6)C(F)(F)F)cn45)nc23)CC1` [Example 126, (S)-1-((R)-2,2,2-trifluoro-1-(3-(6-fluoro-8-(1-(hydroxymethyl)cyclopropyl)quinolin-2-yl)-[1,2,4]triazolo[4,3-a]pyridin-6-yl)ethyl)pyrrolidin-3-ol hydrochloride], the pIC50 against PIM-1 is 9.55; in assay [1], less than 7.00; on recombinant rat PIM-3 it was 8.72.

As to `COc1cc(C)cc2ccc(-c3nnc4ccc([C@@H](N5CC[C@H](N)C5)C(F)(F)F)cn34)nc12` [Example 127, (S)-1-((R)-2,2,2-trifluoro-1-(3-(8-methoxy-6-methylquinolin-2-yl)-[1,2,4]triazolo[4,3-a]pyridin-6-yl)ethyl)pyrrolidin-3-amine hydrochloride], the pIC50 on PIM-1 is 8.48; in assay [1] it was less than 7.00; on recombinant rat PIM-3 it was 7.96.

These data come from US8889704B2 (Array BioPharma Inc., priority 2011, dated 2014).
